Source: PMC7962117, “The Complex Structure of Protein AaLpxC from Aquifex aeolicus with ACHN-975 Molecule Suggests an Inhibitory Mechanism at Atomic-Level against Gram-Negative Bacteria” (Molecules, 2021)
Positions count from the first letter of the chain named.

Key:
Test in all cases: isothermal titration calorimetry
Type in all cases: binding
[1] = biological target: T1, AaLpxC (Aquifex aeolicus, UniProt O67648, I189A)
T1 construct: gene lpxC; codon-optimised gene in pET-21a (NdeI/XhoI), E. coli BL21(DE3); approx. 32 kDa; Zn2+ enzyme; last five residues LTRLE disordered in crystal
T1 sequence (O67648 1-271 I189A): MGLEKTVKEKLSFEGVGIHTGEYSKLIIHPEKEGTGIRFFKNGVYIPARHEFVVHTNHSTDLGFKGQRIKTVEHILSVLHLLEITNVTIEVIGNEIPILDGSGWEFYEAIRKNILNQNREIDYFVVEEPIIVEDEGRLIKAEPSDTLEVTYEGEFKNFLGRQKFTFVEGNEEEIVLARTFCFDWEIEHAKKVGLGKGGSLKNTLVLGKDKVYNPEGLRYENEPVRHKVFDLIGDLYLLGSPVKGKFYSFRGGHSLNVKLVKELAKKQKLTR
Source text: (§1) isothermal titration calorimetry on AaLpxC

[2] = biological target: T2, AaLpxC (Aquifex aeolicus, UniProt O67648, I18A)
T2 construct: gene lpxC; codon-optimised gene in pET-21a (NdeI/XhoI), E. coli BL21(DE3); approx. 32 kDa; Zn2+ enzyme; last five residues LTRLE disordered in crystal
T2 sequence (O67648 1-271 I18A): T1 sequence (O67648 1-271 I189A) with I18A, A189I
Source text: as §1

[3] = biological target: T3, AaLpxC (Aquifex aeolicus, UniProt O67648, T203A)
T3 construct: gene lpxC; codon-optimised gene in pET-21a (NdeI/XhoI), E. coli BL21(DE3); approx. 32 kDa; Zn2+ enzyme; last five residues LTRLE disordered in crystal
T3 sequence (O67648 1-271 T203A): T1 sequence (O67648 1-271 I189A) with A189I, T203A
Source text: as §1

[4] = biological target: T4, AaLpxC (Aquifex aeolicus, UniProt O67648)
T4 construct: gene lpxC; codon-optimised gene in pET-21a (NdeI/XhoI), E. coli BL21(DE3); approx. 32 kDa; Zn2+ enzyme; last five residues LTRLE disordered in crystal
T4 sequence (O67648 1-271): T1 sequence (O67648 1-271 I189A) with A189I
Source text: as §1

[5] = biological target: T5, AaLpxC (Aquifex aeolicus, UniProt O67648, E73A)
T5 construct: gene lpxC; codon-optimised gene in pET-21a (NdeI/XhoI), E. coli BL21(DE3); approx. 32 kDa; Zn2+ enzyme; last five residues LTRLE disordered in crystal
T5 sequence (O67648 1-271 E73A): T1 sequence (O67648 1-271 I189A) with E73A, A189I
Source text: as §1

[6] = biological target: T6, AaLpxC (Aquifex aeolicus, UniProt O67648, H19A)
T6 construct: gene lpxC; codon-optimised gene in pET-21a (NdeI/XhoI), E. coli BL21(DE3); approx. 32 kDa; Zn2+ enzyme; last five residues LTRLE disordered in crystal
T6 sequence (O67648 1-271 H19A): T1 sequence (O67648 1-271 I189A) with H19A, A189I
Source text: as §1

[7] = biological target: T7, AaLpxC (Aquifex aeolicus, UniProt O67648, K227A)
T7 construct: gene lpxC; codon-optimised gene in pET-21a (NdeI/XhoI), E. coli BL21(DE3); approx. 32 kDa; Zn2+ enzyme; last five residues LTRLE disordered in crystal
T7 sequence (O67648 1-271 K227A): T1 sequence (O67648 1-271 I189A) with A189I, K227A
Source text: as §1

[8] = biological target: T8, AaLpxC (Aquifex aeolicus, UniProt O67648, I186A)
T8 construct: gene lpxC; codon-optimised gene in pET-21a (NdeI/XhoI), E. coli BL21(DE3); approx. 32 kDa; Zn2+ enzyme; last five residues LTRLE disordered in crystal
T8 sequence (O67648 1-271 I186A): T1 sequence (O67648 1-271 I189A) with I186A, A189I
Source text: as §1

[9] = biological target: T9, AaLpxC (Aquifex aeolicus, UniProt O67648, F180A)
T9 construct: gene lpxC; codon-optimised gene in pET-21a (NdeI/XhoI), E. coli BL21(DE3); approx. 32 kDa; Zn2+ enzyme; last five residues LTRLE disordered in crystal
T9 sequence (O67648 1-271 F180A): T1 sequence (O67648 1-271 I189A) with F180A, A189I
Source text: as §1

[10] = biological target: T10, AaLpxC (Aquifex aeolicus, UniProt O67648, S59A)
T10 construct: gene lpxC; codon-optimised gene in pET-21a (NdeI/XhoI), E. coli BL21(DE3); approx. 32 kDa; Zn2+ enzyme; last five residues LTRLE disordered in crystal
T10 sequence (O67648 1-271 S59A): T1 sequence (O67648 1-271 I189A) with S59A, A189I
Source text: as §1

[11] = biological target: T11, AaLpxC (Aquifex aeolicus, UniProt O67648, E185A)
T11 construct: gene lpxC; codon-optimised gene in pET-21a (NdeI/XhoI), E. coli BL21(DE3); approx. 32 kDa; Zn2+ enzyme; last five residues LTRLE disordered in crystal
T11 sequence (O67648 1-271 E185A): T1 sequence (O67648 1-271 I189A) with E185A, A189I
Source text: as §1

## CC(C)(N)[C@H](NC(=O)c1ccc(C#CC#C[C@@H]2C[C@H]2CO)cc1)C(=O)NO [ACHN-975]
[1]
  Kd: 100 ± 90 nM
[2]
  Kd: 400 ± 300 nM
[3]
  Kd: 2000 ± 1400 nM
[4]
  Kd: 400 ± 100 nM
[5]
  Kd: 70 ± 50 nM
[6]
  Kd: 400 ± 200 nM
[7]
  Kd: 100 ± 80 nM
[8]
  Kd: 200 ± 90 nM
[9]
  Kd: 90 ± 70 nM
[10]
  Kd: 400 ± 100 nM
[11]
  Kd: 60 ± 30 nM
